Test results taken from US4571393A, “3-Phenoxy-1-azetidinecarboxamides” (A. H. Robins Company, Incorporated, priority 1984, dated 1986).
Blank lines part the entries; values can stand above or below the compound they belong to.

Columns and labels:
[1] = anticonvulsant activity against Metrazole (pentylenetetrazol) s.c. in mice, method of Swinyard; assay type: in vivo; details: for Number Protected / Number Tested: 1/2 hr before 80 mg/kg s.c. Metrazole; for ED50: Mus musculus, ip, 80 mg/kg s.c. Metrazole, probit analysis, read-out: ED50 and (Confidence Limits)
Source text: The procedure for testing the compounds for their anticonvulsant activity and comparison with prior art compounds is based on evaluation techniques published by Swinyard, E. A. in EPILEPSIA 10: 107-19 (1969) and in J. PHARMAC. EXPTL. THERAP. 106: 319-30 (1952) as explained in greater detail below.
A comparison was made of anti-convulsant activity of the compound of Example 1 and the prior art methyl analog (U.S. Pat. No. 4,226,861, Example 4) using metrazole as the convulsant by the method of Swinyard (See above citation).
Ninety-six adult female mice weighing 24-32 g were randomly assigned to dosage groups according to the method of Steel, R. G. D. and Torrie, J. H. (1960) in "Principles and Procedures of Statistics," McGraw-Hill Book Company, Inc., pp 99-100, pp 428-31. Each mouse was identified with a color code on its tail. The test compounds were administered as suspensions in 10 ml/kg mouse body weight of 0.5% aqueous methyl cellulose within 15 minutes of preparation of the suspension. Metrazole (pentylenetetrazol) was prepared as a solution in physiological saline. The mice were not fasted prior to the test. Eight mice were tested at each dosage level.
Each mouse received one dose of the test drug in the 0.5% aqueous methylcellulose or the control article (0.5% aqueous methylcellulose alone) intraperitoneally. Metrazole (80 mg/kg S.C.) was then given in a loose fold of skin on the back of the neck; i.e., 1/2 hr after the test compound or control article was given. Injections were given with a 1-ml glass tuberculin syringe with appropriate size hypodermic needle (27 gauge for solutions; 23 gauge for suspensions). All injections were given in a volume of 10 ml/kg mouse body weight. […] Anticonvulsant data were tabulated as the percent protection, i.e., [formula] The ED50 and (95% confidence limits) and potency ratio were ascertained by the computer-based probit analysis ascribed to Finney, D. J. (1964) Statistical Method in Biological Assay., 2nd Ed., New York. Hefner Publishing Co. Results are in Table A. Statistical analysis of the data indicated no significant difference in anti-convulsant potency between the two compounds.
(a) All mice were first injected with 10 ml/kg of 0.5% aqueous
methylcellulose intraperitoneally in which test compound was suspended if
(b) 80 mg/kg Metrazole in 10 ml saline of mouse body weight was
administered to all mice subcutaneously in a loose fold of skin on the
back of the neck onehalf hr. after administration of test compound.

[2] = plasma half-life of elimination, two-way crossover oral/intravenous study in dogs; assay type: in vivo, mongrel dogs; details: 10 mg/kg, average of oral and intravenous testing, dog plasma, HPLC; read-out: mean apparent terminal half-life of elimination (converted)
Experimental: Tests were conducted in order to compare the apparent half-life of elimination in the animal bloodstream of compounds of the present invention with that of the parent prior art compounds of which they are the metabolites as follows:
A two-way crossover study was conducted on male and female adult mongrel dogs. Each dog, after overnight fasting, received a single oral or intravenous dose of 10 mg/kg of test drug in 75% PEG in water and in such concentration that each dog received 1 ml of solution/kg of body weight. Oral doses were administered by using a glass syringe attached to a Levin® tube (size 18 French) which served as the stomach tube. […] Plasma levels of the test drug in the samples were determined by the HPLC method described by Osman, M. A.; Pinchbeck, F. M.; Cheng, L. K.; and Wright, G. J. described in the Journal of Chromatography, 336 (1981). […] The test drug being measured and the internal standard were then extracted from the plasma into a mixture of hexane, methylene chloride and butanol. […] The final solution was chromatographed on a Waters® column C18 reverse-phase system, the samples being analyzed in sequential order starting with the 0-hr sample (control) and proceeding to the 24 hr sample for the same animal. Duplicate assays were carried out for each sample and the mean value was recorded. […]

half-life [2]: 2.4 ± 0.4 h
SMILES: NC(=O)N1CC(Oc2cccc(C(F)(F)F)c2)C1 [Example 1, 3-[3-(Trifluoromethyl)phenoxy]-1-azetidinecarboxamide]
Number Protected / Number Tested ([1]; 45 mg/kg i.p.): 1/8
Number Protected / Number Tested ([1]; 67 mg/kg i.p.): 2/8
Number Protected / Number Tested ([1]; 100 mg/kg i.p.): 4/8
Number Protected / Number Tested ([1]; 150 mg/kg i.p.): 5/8
Number Protected / Number Tested ([1]; 225 mg/kg i.p.): 8/8
ED50 [1]: 99.2 mg/kg
Potency and 95% Confidence Limits ([1]; potency ratio, prior art compound 1.00, i.p.): 0.92

half-life [2]: 1.3 ± 0.4 h
SMILES: CNC(=O)N1CC(Oc2cccc(C(F)(F)F)c2)C1 [Example 4 of U.S. Pat. No. 4,226,861, N-methyl-3-(3-trifluoromethyl) phenoxy-1-azetidinecarboxamide, reference compound]
Number Protected / Number Tested ([1]; 45 mg/kg i.p.): 1/8
Number Protected / Number Tested ([1]; 67 mg/kg i.p.): 2/8
Number Protected / Number Tested ([1]; 100 mg/kg i.p.): 3/8
Number Protected / Number Tested ([1]; 150 mg/kg i.p.): 8/8
ED50 [1]: 90.9 mg/kg
